Assay results: US9783534B2 (priority 2013, dated 2017)
Like-named read-outs stand apart in the source and are kept apart here.

Tests used:
Phytophthora infestans = assay type: in vivo; conditions: tomato, protective, 50 g a.i./liter SC formulation, evaluation 3 days after inoculation
[1] = Stability of the solid form on storage; assay type: physicochemical; conditions: prolonged storage
Plasmopara viticola = experiment: Plasmopara test (vine)/protective; assay type: in vivo; conditions: protective, 50 g a.i./liter SC formulation, evaluation 6 days after inoculation
From the text: To produce a suitable active ingredient preparation, formulations are suspended with water and diluted to the desired concentration. In the present case, both the known amorphous modification of the substance 2-{3-[2-(1-{[3,5-bis(difluoromethyl)-1H-pyrazol-1-yl]acetyl}piperidin-4-yl)-1,3-thiazol-4-yl]-4,5-dihydro-1,2-oxazol-5-yl}-3-chlorophenylmethanesulphonate (form A), as well as the inventive crystalline form of the substance 2-{3-[2-(1-{[3,5-bis(difluoromethyl)-1H-pyrazol-1-yl]acetyl}piperidin-4-yl)-1,3-thiazol-4-yl]-4,5-dihydro-1,2-oxazol-5-yl}-3-chlorophenylmethanesulphonate (form B) are used as 50 g a.i./liter of SC formulation.
To test for protective effectiveness, young plants are sprayed with the active ingredient preparation at the stated application rate. After initial drying of the spray coating, the plants are inoculated with an aqueous spore suspension of Plasmopara viticola and then remain in an incubation cabin for 1 day at approx. 20° C. and 100% relative atmospheric humidity. The plants are then placed in a greenhouse at approx. 21° C. and approx. 90% atmospheric humidity for 4 days. The plants are then moistened and placed in an incubation cabin for 1 day.
Evaluation is carried out 6 days after the inoculation. 0% here means an efficacy which corresponds to that of the control, whereas an efficacy of 100% means that no infection is observed.

[2] = application rate 0.05 ppm active ingredient
[3] = application rate 0.1 ppm active ingredient
[4] = application rate 0.2 ppm active ingredient

Compound: CS(=O)(=O)Oc1cccc(Cl)c1C1CC(c2csc(C3CCN(C(=O)Cn4nc(C(F)F)cc4C(F)F)CC3)n2)=NO1 (single isomer, unassigned) [Form B, 2-{3-[2-(1-{[3,5-bis(difluoromethyl)-1H-pyrazol-1-yl]acetyl}piperidin-4-yl)-1,3-thiazol-4-yl]-4,5-dihydro-1,2-oxazol-5-yl}-3-chlorophenylmethanesulphonate]
- Efficacy in % (Phytophthora infestans; [2]): 40%
- Efficacy in % (Phytophthora infestans; [3]): 60%
- Efficacy in % (Phytophthora infestans; [4]): 76%
- thermodynamic stability / conversion into another form [1]: not converted into another form even on prolonged storage
- Efficacy in % (Plasmopara viticola; [2]): 0%
- Efficacy in % (Plasmopara viticola; [3]): 35%
- Efficacy in % (Plasmopara viticola; [4]): 75%

Compound: CS(=O)(=O)Oc1cccc(Cl)c1C1CC(c2csc(C3CCN(C(=O)Cn4nc(C(F)F)cc4C(F)F)CC3)n2)=NO1 (single isomer, unassigned) [Form A, 2-{3-[2-(1-{[3,5-bis(difluoromethyl)-1H-pyrazol-1-yl]acetyl}piperidin-4-yl)-1,3-thiazol-4-yl]-4,5-dihydro-1,2-oxazol-5-yl}-3-chlorophenylmethanesulphonate, reference compound]
- Efficacy in % (Phytophthora infestans; [2]): 0%
- Efficacy in % (Phytophthora infestans; [3]): 15%
- Efficacy in % (Phytophthora infestans; [4]): 40%
- Efficacy in % (Plasmopara viticola; [2]): 0%
- Efficacy in % (Plasmopara viticola; [3]): 6%
- Efficacy in % (Plasmopara viticola; [4]): 35%
